Each structure is given as a SMILES string.

In one test the target is T1, Peregrin (Homo sapiens) (UniProt P55201).
T1 sequence (whole entry): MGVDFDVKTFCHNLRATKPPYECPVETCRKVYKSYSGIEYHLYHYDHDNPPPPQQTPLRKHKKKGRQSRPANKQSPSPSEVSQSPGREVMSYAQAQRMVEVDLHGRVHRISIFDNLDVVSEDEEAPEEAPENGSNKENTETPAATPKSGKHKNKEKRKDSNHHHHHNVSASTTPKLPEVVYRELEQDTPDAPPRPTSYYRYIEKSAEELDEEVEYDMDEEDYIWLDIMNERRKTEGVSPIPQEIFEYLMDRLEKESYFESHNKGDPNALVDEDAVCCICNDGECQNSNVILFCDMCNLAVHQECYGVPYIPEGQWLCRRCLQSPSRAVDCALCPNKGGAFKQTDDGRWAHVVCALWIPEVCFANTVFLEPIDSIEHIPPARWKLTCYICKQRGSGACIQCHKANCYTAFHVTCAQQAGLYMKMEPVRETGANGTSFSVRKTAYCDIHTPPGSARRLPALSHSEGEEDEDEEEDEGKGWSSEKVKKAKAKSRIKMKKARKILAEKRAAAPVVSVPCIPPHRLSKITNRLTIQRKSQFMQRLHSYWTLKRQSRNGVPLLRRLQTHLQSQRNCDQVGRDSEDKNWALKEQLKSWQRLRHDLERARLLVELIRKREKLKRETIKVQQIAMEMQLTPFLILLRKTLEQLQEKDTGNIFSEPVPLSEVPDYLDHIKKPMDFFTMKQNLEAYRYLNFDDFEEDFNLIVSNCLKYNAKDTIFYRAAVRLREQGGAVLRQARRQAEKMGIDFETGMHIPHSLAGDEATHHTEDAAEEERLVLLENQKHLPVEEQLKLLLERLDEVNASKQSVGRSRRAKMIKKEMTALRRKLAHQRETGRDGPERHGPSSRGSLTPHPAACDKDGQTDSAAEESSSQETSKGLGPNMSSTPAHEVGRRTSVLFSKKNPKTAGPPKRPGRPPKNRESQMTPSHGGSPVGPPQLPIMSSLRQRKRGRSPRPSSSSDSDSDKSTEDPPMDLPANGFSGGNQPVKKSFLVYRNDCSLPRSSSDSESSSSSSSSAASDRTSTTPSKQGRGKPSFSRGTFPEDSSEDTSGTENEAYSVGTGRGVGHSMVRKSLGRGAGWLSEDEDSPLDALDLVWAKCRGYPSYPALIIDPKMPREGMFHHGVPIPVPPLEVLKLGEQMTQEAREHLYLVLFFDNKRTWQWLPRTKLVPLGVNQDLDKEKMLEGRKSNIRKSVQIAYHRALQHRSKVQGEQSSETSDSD
Particulars: Compound concentration 20.0 uM, Protein concentration 2.0 uM, Result type QC Liability.

Test [1] deals with Fibroblast growth factor receptor 3 (Homo sapiens) (UniProt P22607). Particulars: Compound concentration 20.0 uM, Protein concentration 2.0 uM, Result type QC Liability.
Sequence of Fibroblast growth factor receptor 3 (Homo sapiens) (P22607 23-806 limits assumed): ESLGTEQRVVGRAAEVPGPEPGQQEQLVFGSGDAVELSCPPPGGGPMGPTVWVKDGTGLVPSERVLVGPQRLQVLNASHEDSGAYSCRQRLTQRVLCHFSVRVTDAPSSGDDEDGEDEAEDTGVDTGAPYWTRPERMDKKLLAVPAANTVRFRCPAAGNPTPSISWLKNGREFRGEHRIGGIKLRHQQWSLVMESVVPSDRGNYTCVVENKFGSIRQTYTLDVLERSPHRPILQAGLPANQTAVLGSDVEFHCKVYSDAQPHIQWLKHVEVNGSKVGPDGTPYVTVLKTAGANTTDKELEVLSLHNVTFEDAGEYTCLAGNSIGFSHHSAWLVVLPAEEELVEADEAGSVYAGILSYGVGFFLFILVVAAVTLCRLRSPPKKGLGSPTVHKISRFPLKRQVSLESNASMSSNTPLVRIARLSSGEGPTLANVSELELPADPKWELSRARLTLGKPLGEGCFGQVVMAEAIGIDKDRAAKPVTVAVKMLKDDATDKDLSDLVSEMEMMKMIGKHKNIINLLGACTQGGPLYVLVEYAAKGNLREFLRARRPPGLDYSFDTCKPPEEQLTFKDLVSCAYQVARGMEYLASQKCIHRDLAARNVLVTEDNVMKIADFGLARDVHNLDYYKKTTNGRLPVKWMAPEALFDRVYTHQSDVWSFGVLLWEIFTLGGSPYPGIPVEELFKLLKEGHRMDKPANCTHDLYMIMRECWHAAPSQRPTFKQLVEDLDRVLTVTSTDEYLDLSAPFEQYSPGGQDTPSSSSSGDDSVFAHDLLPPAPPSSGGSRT
Description: Thermal Shift Assay. Domain: start/stop: P449-E759

Regarding `Cc1cccc(CC(=O)N2CCc3c2ccc(-c2cn(C)c4ncnc(N)c24)c3F)n1`, the ΔTm at Peregrin (Homo sapiens) is -2.12 °C; in test [1] it was -0.88 °C.

Take `CC(=O)N1CCN([C@H]2CCC[C@@H](NC(=O)c3cc4c(F)ccc(C)c4[nH]3)C2)CC1`: the results for the ΔTm (on Peregrin (Homo sapiens); in test [1]) were -1.84 °C and 0.6 °C, respectively.

With `CN(C(=O)CCOCCOCCOCCOCCNc1cccc2c1C(=O)N(C1CCC(=O)NC1=O)C2=O)[C@H]1CC[C@@]2(C)[C@@H](CC[C@@H]3[C@@H]2CC[C@]2(C)[C@@H](c4ccc5ccncc5c4)CC[C@@H]32)C1` (stereo partly drawn), the ΔTm at Peregrin (Homo sapiens) was 3.76 °C; in test [1], 1.42 °C.

With `COc1ccccc1S(=O)(=O)Nc1ccc2c(c1)CN(C)C(=O)N2`, the figures for the ΔTm (at Peregrin (Homo sapiens); in test [1]) were 1.73 °C and 0.61 °C, respectively.

Consider `CC1(C)C(=O)N([C@H]2CCc3c(O)cccc32)c2nc(Nc3cccc(CN4CCCC4)c3)ncc21`, for which the figures for the ΔTm (on Peregrin (Homo sapiens); in test [1]) were -1.23 °C and 9.18 °C, respectively.

With `CCOc1ccc(S(=O)(=O)Nc2ccc(Cl)cc2C#Cc2cnc(C(=O)O)cc2OC)c2ncccc12`, the ΔTm at Peregrin (Homo sapiens) is -1.33 °C; in test [1] it was -5.78 °C.

`C[C@]12CC[C@@H]3c4ccc(O)cc4CC[C@H]3[C@@H]1C[C@H]1OC(=O)C[C@]12O`: the ΔTm at Peregrin (Homo sapiens) is -1.41 °C; in test [1], 0.36 °C.

Regarding `N#Cc1ccc(C#CC[C@@H](C#N)NC(=O)[C@H]2CCCCN2)cc1F`, the thermal shift (ΔTm) at Peregrin (Homo sapiens) was -2.24 °C; in test [1], 0.88 °C.

On to `CN[C@@H](C)C(=O)N[C@H]1CN(C(=O)CC(C)C)CC[C@H]2CC[C@@H](C(=O)NC(c3ccccc3)c3ccccc3)N2C1=O`, for which the figures for the ΔTm (at Peregrin (Homo sapiens); in test [1]) were -1.53 °C and 0.83 °C, respectively.

As to `Cn1ncc(-c2nc(N[C@H]3CC[C@H](N)CC3)ncc2Cl)c1CC1CC1`, the thermal shift (ΔTm) is -1.56 °C on Peregrin (Homo sapiens) and 1.76 °C in test [1].

As for `Cn1cnc(Cn2ccc3ccc(CNCc4[nH]c5ccccc5c4[C@H]4NC(=O)c5ccc(O)cc54)cc32)c1`, the ΔTm is -2.61 °C at Peregrin (Homo sapiens) and 0.57 °C in test [1].

With `N[C@@H](CC(=O)O)Cn1nnc(-c2ccc(Oc3ncc(Cl)cc3F)cc2)n1`, the ΔTm at Peregrin (Homo sapiens) is -3.09 °C; in test [1], 0.43 °C.

Take `C[C@@H]1COCCN1c1cc(=O)n2c(n1)N(Cc1cncc(Cl)c1)[C@H](C(F)(F)F)CC2`: the ΔTm at Peregrin (Homo sapiens) was -3.92 °C; in test [1], 0.57 °C.

On to `CC[C@H](NC(=O)[C@H](C)NC)C(=O)N1C[C@@H](O)C[C@H]1Cc1c(-c2[nH]c3cc(F)ccc3c2C[C@@H]2C[C@H](O)CN2C(=O)[C@H](CC)NC(=O)[C@H](C)NC)[nH]c2cc(F)ccc12`, for which the ΔTm at Peregrin (Homo sapiens) is -1.75 °C; in test [1], 0.75 °C.

As to `CC(C)(O)[C@H](F)CN1Cc2cc(NC(=O)c3cnn4cccnc34)c(N3CCOCC3)cc2C1=O`, the ΔTm at Peregrin (Homo sapiens) was -1.78 °C; in test [1] it was 2.76 °C.

For `CN(C)CC#Cc1ccc2[nH]c3c(c2c1)-c1nc(N)ncc1CCC3`, the ΔTm on Peregrin (Homo sapiens) is -0.87 °C; in test [1], 3.51 °C.

In the case of `O=C(O)C[C@H]1CC[C@H](c2ccc(NC(=O)c3nnc(Nc4ccc(F)c(F)c4)o3)cc2)CC1`, the ΔTm on Peregrin (Homo sapiens) was -2.89 °C; in test [1], 0.79 °C.

As to `CN1CCC(F)(Cn2cnc(-c3ccc(F)cn3)c2-c2ccnc3[nH]ccc23)CC1`, the ΔTm on Peregrin (Homo sapiens) was -0.88 °C; in test [1], 0.5 °C.

With `O=C(Nc1ccc(-n2nc(-c3cccnc3)cc2C(F)(F)F)cn1)c1ccc(-c2ccccc2)c(F)c1`, the figures for the ΔTm (on Peregrin (Homo sapiens); in test [1]) were -2.22 °C and 0.42 °C, respectively.

As to `Cc1cn(CCN2CCN(c3ccccc3-c3cc(C#N)cc(C(=O)NCCCN4CCCC4)c3)CC2)c2ccccc12`, the ΔTm was 0.42 °C on Peregrin (Homo sapiens) and -1.2 °C in test [1].

As for `CCNC1=N[C@@H]2[C@@H](O)[C@H](O)[C@@H](CO)O[C@@H]2S1`, the ΔTm on Peregrin (Homo sapiens) came to 0.02 °C; in test [1], 0.73 °C.

As for `COc1cc2ncnc(Nc3ccc(F)c(Cl)c3)c2cc1OCCN(C)C[C@H](C)O`, the ΔTm at Peregrin (Homo sapiens) is -1.85 °C; in test [1], 1.03 °C.

As to `Cc1cc2c(-c3ccco3)cnc(N[C@@H]3CCN(C)C[C@H]3C(=O)NC3CCCCC3)c2[nH]c1=O`, the ΔTm on Peregrin (Homo sapiens) was -0.68 °C; in test [1], 0.65 °C.

As to `Cc1nn(-c2nc3ccc(Cl)c(Cl)c3[nH]2)c(O)c1C1OC(=O)c2ccccc21` (stereo not drawn), the figures for the ΔTm (on Peregrin (Homo sapiens); in test [1]) were -3.79 °C and 0.7 °C, respectively.

Regarding `O=C(Nc1ccc(N2CCC(C(=O)N3CCOCC3)CC2)cc1)c1cnc(Oc2ccccc2)nc1`, the results for the ΔTm (at Peregrin (Homo sapiens); in test [1]) were -2.41 °C and 0.5 °C, respectively.

As to `Cc1csc(S(=O)(=O)N(CC(C)C)c2cc3c(cc2OCc2ccc(C(=O)O)cc2)CCC3)n1`, the ΔTm at Peregrin (Homo sapiens) was -3.17 °C; in test [1] it was 0.12 °C.

Take `CN[C@@H](C)C(=O)N[C@H](C(=O)N1CCC[C@H]1C(=O)N[C@H]1c2ccccc2C[C@H]1OCC#CC#CCO[C@@H]1Cc2ccccc2[C@@H]1NC(=O)[C@@H]1CCCN1C(=O)[C@@H](NC(=O)[C@H](C)NC)C1CCCCC1)C1CCCCC1`: the ΔTm was -2.65 °C on Peregrin (Homo sapiens) and 1.42 °C in test [1].

Regarding `CCCN1C(=O)c2ccc(Cl)cc2Nc2ncccc21`, the ΔTm at Peregrin (Homo sapiens) was -3.34 °C; in test [1], 1.35 °C.

As for `CCCCC/C=C/C=C1/C(=O)C=C[C@@H]1C/C=C\CCCC(=O)O`, the ΔTm on Peregrin (Homo sapiens) is -3.72 °C; in test [1] it was 0.72 °C.

For the compound `COc1cc(N2CCN(C)CC2)ccc1Nc1ncc2c(n1)N(C)c1ccccc1C(=O)N2CC(F)(F)F`, the values for the ΔTm (at Peregrin (Homo sapiens); in test [1]) were -2.22 °C and 0.22 °C, respectively.

With `Cc1ccc(-n2nc(C(C)(C)C)cc2NC(=O)Nc2ccccc2F)cc1`, the ΔTm was -0.3 °C on Peregrin (Homo sapiens) and 2.28 °C in test [1].

As for `CCc1ccc(-c2ncn(CC3(F)CCN(C)CC3)c2-c2ccnc3[nH]ccc23)nc1`, the values for the ΔTm (on Peregrin (Homo sapiens); in test [1]) were -1.47 °C and 0.58 °C, respectively.

As for `COc1cc2ncnc(Nc3cccc(O)c3)c2cc1OC`, the ΔTm was -1.59 °C on Peregrin (Homo sapiens) and 2.74 °C in test [1].

As to `CNC(=O)c1cccc(-c2ccc3c(N4CCOC[C@@H]4C)nc(N4CCOC[C@@H]4C)nc3n2)c1`, the ΔTm at Peregrin (Homo sapiens) is -1.11 °C; in test [1], 0.5 °C.

Consider `O=C(O)c1ccc(CN2C[C@@H]3C[C@H]2CN3Cc2ccc(Oc3ccc(-c4ncco4)cc3)cc2)cc1`, for which the ΔTm on Peregrin (Homo sapiens) is -2.16 °C; in test [1], 0.44 °C.

Consider `O=C1COc2cc(C(=O)N(Cc3ccc(C(=O)Nc4ccncn4)cc3)C3CC3)ccc2N1`, for which the ΔTm on Peregrin (Homo sapiens) was -0.77 °C; in test [1], 0.74 °C.

As to `Cc1ccc(NS(=O)(=O)c2ccc3c(c2)C2C=CCC2C(c2ccc(C(=O)O)cc2)N3)cc1C` (stereo not drawn), the shift in melting temperature (ΔTm) on Peregrin (Homo sapiens) is -0.5 °C; in test [1], 0.11 °C.

Consider `CN1CCc2cc(Nc3ncc(C(F)(F)F)c(NCc4cc[nH]n4)n3)ccc2C1`, for which the results for the ΔTm (on Peregrin (Homo sapiens); in test [1]) were -1.01 °C and 8.22 °C, respectively.

As for `Cn1nc(-c2ccc(C(N)=O)cc2)c2ccccc2c1=O`, the ΔTm on Peregrin (Homo sapiens) is -1.74 °C; in test [1], 1.06 °C.

With `CC(=O)c1c(C)c2cnc(Nc3ccn(C)n3)nc2n(C2CCCC2)c1=O`, the shift in melting temperature (ΔTm) at Peregrin (Homo sapiens) is -0.34 °C; in test [1], -0.69 °C.

In the case of `CC1CCN(C(=O)[C@H](CCn2cccc2C#N)NS(=O)(=O)c2cccc3[nH]ccc23)CC1`, the ΔTm is -2.12 °C on Peregrin (Homo sapiens) and 0.35 °C in test [1].

For the compound `CC(C)(C[C@H]1CN(S(=O)(=O)c2cccc(C(F)(F)F)c2)c2cc(-c3cc(F)cc(OC(F)F)c3)ccc2O1)C(=O)O`, the ΔTm at Peregrin (Homo sapiens) is -3.42 °C; in test [1], -0.98 °C.

For the compound `CN(CCCCCCC1=C(c2cc(F)cc(F)c2)CCCc2cc(O)ccc21)CCCCS(=O)(=O)CCCC(F)(F)F`, the thermal shift (ΔTm) at Peregrin (Homo sapiens) was -1.47 °C; in test [1], 0.68 °C.

In the case of `COc1cc(C(=O)O)ncc1C#Cc1ccccc1NS(=O)(=O)c1cccc2c(N(C)C)ccnc12`, the ΔTm on Peregrin (Homo sapiens) is -0.45 °C; in test [1], 0.5 °C.

As for `CN(C)CCCN1c2ccccc2Sc2ccc(Cl)cc21`, the values for the ΔTm (on Peregrin (Homo sapiens); in test [1]) were -1.01 °C and 0.65 °C, respectively.

On to `CNC(=O)c1nnc(NC(=O)C2CC2)cc1Nc1cccc(-c2ncn(C)n2)c1OC`, for which the ΔTm at Peregrin (Homo sapiens) (tested as the 2H-labelled form) is -1.46 °C; in test [1] (tested as the 2H-labelled form) it was 1.05 °C.

Regarding `COc1cc(N[C@@H]2CCCC[C@]2(O)C(F)(F)F)ccc1F`, the ΔTm on Peregrin (Homo sapiens) was -1.55 °C; in test [1], 0.65 °C.

Take `CN(C)c1ccc(-c2cc3ncccc3c(OCCCCO)n2)cc1`: the ΔTm on Peregrin (Homo sapiens) was -2.48 °C; in test [1] it was 3.37 °C.

`CCC(C)(C)CC[C@H](NC(=O)N1CCOCC1)C(=O)NC1(C#N)CCN(C)CC1`: the figures for the ΔTm (at Peregrin (Homo sapiens); in test [1]) were -3.19 °C and 0.71 °C, respectively.

One may read the ΔTm as the shift of the melting midpoint relative to a reference.
